Data from patent US9399790B2, “Stable NAD/NADH derivatives” (Roche Diabetes Care, Inc., priority 2006, dated 2016).

Legend:
[1] = target: T1, glucose dehydrogenase (GlucDH) (Bacillus subtilis, UniProt P12310); experiment: Glucose dehydrogenase (GlucDH) activity assay with NAD derivative as cofactor; assay type: biochemical; settings: for U/ml: GlucDH 0.002 mg/ml (NAD)
Protocol: In order to examine the role of pNAD as a cofactor for glucose dehydrogenase (GlucDH), a glucoseDH activity assay in 0.1 M Tris/0.2 M NaCl (pH 8.5) buffer was carried out. The concentration of glucose was 80 mM. pNAD and NAD concentrations of 0.05-0.5 mM were used. To this, 10 mg/ml (pNAD) or 0.002 mg/ml (NAD) [83 or 0.017 μM respectively] GlucDH was added. The assay was carried out at room temperature and the enzymatic reaction was monitored by recording absorption spectra at regular time intervals. The values shown in table 1 refer to an absorption measurement after 4 min.
A glucose dehydrogenase activity assay for cNAD compared to NAD was carried out as described under B) for pNAD. For this purpose glucose dehydrogenase concentrations of […] and 0.002 mg/ml (NAD) [0.83 and 0.017 μM respectively] were used.

[2] = Examination of the stability of carbaNAD (stressing in solution, HPLC); assay type: physicochemical; settings: 10 mM solution, pH 8, 0.1 M potassium phosphate buffer, 8° C. and 37° C., after 0.25, 75 and 175 h
Protocol: A 10 mM solution of carbNAD and/or NAD is stressed at pH 8 in 0.1 M potassium phosphate buffer. The content is determined by means of HPLC chromatography after 0.25, 75 and 175 h.
Buffer A: 100 mM KHPO4+10 mM tetrabutylammonium hydrogen sulfate, pH 6.9 buffer B: buffer A+acetonitrile 1:1 flow rate 1.0 ml/min detection: 254 nm […]
gradient: in 40 min to 35% buffer B, hold for 2 min and then change to 0% buffer A within 3 min.

[3] = Investigation of the stability of pNAD (incubation at 50° C., HPLC); assay type: physicochemical; settings: 0.15 M KPO4, 1 M NaCl buffer (pH 7.0)
Protocol: In order to examine the stability of pNAD compared to NAD, the same amounts of NAD and pNAD were each taken up in 0.15 M KPO4, 1 M NaCl buffer (pH 7.0) and incubated at 50° C. The decomposition of NAD and/or pNAD were monitored by HPLC.

[4] = target: T1, glucose dehydrogenase (GlucDH); experiment: Glucose dehydrogenase (GlucDH) activity assay with NAD derivative as cofactor; assay type: biochemical; settings: 0.05 mM (p)NAD; 80 mM glucose; 0.1 M Tris/0.2 M NaCl pH 8.5; room temperature; absorption after 4 min; GlucDH 0.02 mg/ml (NAD), 10 mg/ml (pNAD)
[5] = 0.05 mM (c)NAD, relative to NAD = 100
[6] = 0.05 mM (p)NAD, relative to NAD = 100, 80 mM glucose, pH 8.5, after 4 min
[7] = 0.1 mM (c)NAD, relative to NAD = 100
[8] = 0.4 mM (p)NAD, relative to NAD = 100, 80 mM glucose, pH 8.5, after 4 min

T1 sequence (P12310 whole entry): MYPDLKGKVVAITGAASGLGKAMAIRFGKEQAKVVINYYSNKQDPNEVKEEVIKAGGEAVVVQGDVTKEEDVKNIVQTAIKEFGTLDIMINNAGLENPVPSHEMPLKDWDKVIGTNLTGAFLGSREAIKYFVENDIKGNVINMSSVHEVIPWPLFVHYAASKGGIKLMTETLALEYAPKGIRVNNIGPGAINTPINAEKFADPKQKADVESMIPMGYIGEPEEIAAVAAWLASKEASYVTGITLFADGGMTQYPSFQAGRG

Row | SMILES | activity at 50 µM [1, 5] | activity at 50 µM [1, 6] | activity at 100 µM [1, 7] | activity at 400 µM [1, 8] | U/ml ([1]; 0.05 mM (c)NAD, assay as for pNAD, 0.1 mg/ml (cNAD)) | % activity [1, 5] | U/ml ([1]; 0.1 mM (c)NAD, assay as for pNAD, 0.1 mg/ml (cNAD)) | % activity [1, 7] | stability (occurrence of decomposition products, HPLC area percentages) [2] | stability (percentage areas of (p)NAD compared to time zero, HPLC) [3] | U/ml ([1]; 0.4 mM (p)NAD, 80 mM glucose, 0.1 M Tris/0.2 M NaCl pH 8.5, room temperature, absorption after 4 min, 10 mg/ml (pNAD)) | U/ml [4]
1 | NC(=O)c1ccc[n+]([C@@H]2O[C@H](COP(=O)([O-])OP(=O)(O)OC[C@H]3O[C@@H](n4cnc5c(N)ncnc54)[C@H](O)[C@@H]3O)[C@@H](O)[C@H]2O)c1 [NAD, nicotinamide adenine dinucleotide, reference compound] | 100% | 100% | 100% | 100% |  |  |  |  |  |  |  | 
2 | NC(=O)c1ccc[n+]([C@@H]2C[C@H](COP(=O)([O-])OP(=O)(O)OC[C@H]3O[C@@H](n4cnc5c(N)ncnc54)[C@H](O)[C@@H]3O)[C@@H](O)[C@H]2O)c1 [cNAD, carbaNAD] |  |  |  |  | 2.7 U/ml | 0.63% | 5.3 U/ml | 0.95% | very stable compared to NAD |  |  | 
3 | NC(=O)c1ccc[n+]([C@@H]2CN[C@H](COP(=O)([O-])OP(=O)(O)OC[C@H]3O[C@@H](n4cnc5c(N)ncnc54)[C@H](O)[C@@H]3O)C2)c1 [pNAD, Pyrrolidinyl-NAD] |  | 3e-05% |  | 0.00015% |  |  |  |  |  | very stable compared to NAD | 0.0024 U/ml | 0.00017 U/ml
